# Several values for one entry are separate records, joined by “and”; a condition that tells them apart may be missing. Identical values can stand only once.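 Following 48 hours of exposure in 96-well plates, responses at five concentrations were used to interpolate endpoints linearly. GI50 is the concentration that inhibits growth by half. TGI denotes the concentration required for complete inhibition of growth.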
# What was measured:
# Test in all cases: NCI tumour cell line growth inhibition, 48 h
# SR leukemia = tested on: SR leukemia
# HT29 colon = tested on: HT29 colon
# HOP-62 NSCLC = tested on: HOP-62 NSCLC
# NCI-H460 lung = tested on: NCI-H460 lung
# HCT-116 colon = tested on: HCT-116 colon
# LOX IMVI melanoma = tested on: LOX IMVI melanoma
# SK-OV-3 ovarian = tested on: SK-OV-3 ovarian
# UACC-257 melanoma = tested on: UACC-257 melanoma
# 786-0 renal = tested on: 786-0 renal
# HCT-15 colon = tested on: HCT-15 colon
SMILES,GI50 (SR leukemia),TGI (SR leukemia),GI50 (HT29 colon),TGI (HT29 colon),GI50 (HOP-62 NSCLC),TGI (HOP-62 NSCLC),GI50 (NCI-H460 lung),TGI (NCI-H460 lung),GI50 (HCT-116 colon),TGI (HCT-116 colon),GI50 (LOX IMVI melanoma),TGI (LOX IMVI melanoma),GI50 (SK-OV-3 ovarian),TGI (SK-OV-3 ovarian),GI50 (UACC-257 melanoma),TGI (UACC-257 melanoma),GI50 (786-0 renal),TGI (786-0 renal),GI50 (HCT-15 colon),TGI (HCT-15 colon)
CN1CCN(Cc2ccc(NC(=O)c3cccc(C#Cc4c(N)ncc5ccc(F)cc45)c3)cc2C(F)(F)F)CC1,1.02 µM,2.71 µM,0.391 µM,1.87 µM,0.795 µM,1.65 µM,0.885 µM,1.72 µM,0.816 µM,1.61 µM,0.597 µM,1.25 µM,1.19 µM,2.99 µM,0.969 µM,2.11 µM,0.966 µM,1.74 µM,0.621 µM,1.41 µM
C[C@H](C(O)CC(=O)C(C)(C)O)[C@H]1CC[C@@]2(C)[C@@H]3CC[C@H]4C(C)(C)[C@@H](OC5OC(COC6OC(CO)C(O)C(O)C6O)C(O)C(O)C5O)CC[C@]4(C)C3=CC[C@]12C (stereo not given in full),–,> 100 µM,–,> 100 µM,–,> 100 µM,–,> 100 µM,–,> 100 µM,–,> 100 µM,–,> 100 µM,–,> 100 µM,–,> 100 µM,–,> 100 µM
CN(C)C1C(=O)C(C(N)=O)=C(O)C2(O)C(=O)C3=C(O)c4c(O)cccc4C(C)(O)C3CC12 (stereo not given),26.4 µM and > 100 µM,55.1 µM and > 100 µM,27.2 µM and > 100 µM,67.9 µM and > 100 µM,37.5 µM and > 100 µM,> 100 µM,–,> 100 µM,23.7 µM and > 100 µM,39.2 µM and > 100 µM,–,76.5 µM and > 100 µM,–,> 100 µM,–,> 100 µM,26.1 µM and > 100 µM,63.8 µM and > 100 µM,–,> 100 µM
N#Cc1ccc(NC(=O)Nc2nc3ccc(OC(F)(F)F)cc3s2)cc1,0.736 µM,5.77 µM,2.07 µM,10 µM,2.52 µM,8.12 µM,0.605 µM,7.81 µM,0.552 µM,2.87 µM,1.47 µM,4.67 µM,2.65 µM,11.1 µM,1.35 µM,6.4 µM,2 µM,6.35 µM,1.38 µM,6.45 µM
COC1C(O)CC(OC2CC(OC3CC(O[C@@H]4C(=O)c5c(cc6cc(OC7CC(OC8CC(O)C(O)C(C)O8)C(O)C(C)O7)c(C)c(O)c6c5O)CC4[C@H](OC)[C@@H](O)C(C)=O)OC(C)C3O)OC(C)C2O)OC1C (stereo not given in full),0.00624 µM,1.65 µM,0.00995 µM,0.0295 µM,0.0171 µM,0.154 µM,0.00673 µM,> 33.3 µM,0.00621 µM,> 33.3 µM,0.0067 µM,0.0325 µM,0.0211 µM,> 33.3 µM,0.0187 µM,0.0923 µM,0.0219 µM,> 33.3 µM,0.335 µM,> 33.3 µM
Cn1cc2ccccc2c1-c1nc(F)nc(Nc2ccc(N)cc2)n1,–,72.4 µM,–,57.3 µM,–,55.8 µM,–,31.5 µM,–,35.1 µM,–,27 µM,–,33.8 µM,–,37.6 µM,–,64 µM,–,26.3 µM
C/C=C(\C)C(=O)N1c2ccccc2CC1c1c(C)[nH]c2ccccc12 (stereo not given),–,> 100 µM,–,> 100 µM,–,> 100 µM,–,> 100 µM,–,> 100 µM,–,> 100 µM,–,> 100 µM,–,> 100 µM,–,> 100 µM,–,> 100 µM
Cc1ccccc1C[P+](c1ccccc1)(c1ccccc1)c1ccccc1,2.02 µM,> 100 µM,0.849 µM,14.8 µM,1.79 µM,58.9 µM,1.73 µM,12.9 µM,0.896 µM,> 100 µM,1.09 µM,> 100 µM,1.64 µM,9.27 µM,0.371 µM,4.65 µM,4.23 µM,> 100 µM,27.9 µM,> 100 µM
CN1CCN(c2ccc(-c3cccc(CN4CCOCC4)c3)cc2NC(=O)c2c[nH]c(=O)cc2C(F)(F)F)CC1,26.4 µM,63.7 µM,17.9 µM,58.3 µM,> 100 µM,> 100 µM,45.8 µM,> 100 µM,16.4 µM,> 100 µM,25.1 µM,> 100 µM,> 100 µM,> 100 µM,16.9 µM,31.6 µM,41.8 µM,> 100 µM,50.3 µM,> 100 µM
COc1ccccc1N1CCN(CCCOc2ccc(C(=O)/C=C3/C(=O)Nc4ccccc43)cc2)CC1,2.57 µM,14.4 µM,3.13 µM,12.2 µM,16.1 µM,54.8 µM,13.5 µM,65.5 µM,5.75 µM,23.5 µM,11.8 µM,26.4 µM,28.2 µM,> 100 µM,9.79 µM,35.5 µM,19.7 µM,> 70 µM,7.88 µM,> 68.1 µM
